# Biological target: T1, hVR1 (Homo sapiens, UniProt Q8NER1)
# T1 construct: expressed in transfected cells
# Experiment: hVR1 FLIPR (Fluorometric Image Plate Reader) screening assay, IC50 determination
# Assay type: cell-based
# Conditions: agonist capsaicin, inhibition of increase in intracellular calcium
# Method: 1. hVR1 FLIPR (Fluorometric Image Plate Reader) screening assay
# Transfected CHO cells, stably expessing hVR1 (15,000 cells/well) are seeded in 50 ul media in a black clear bottom 384 plate (Greiner) and grown in a humidified incubator (37° C., 2% CO2), 24-30 hours prior to experiment.
# Subsequently, the media is removed from the cell plate by inversion and 2 μM Fluo-4 is added using a multidrop (Labsystems). Following the 40 minutes dye incubation in the dark at 37° C. and 2% CO2, the extracellular dye present is washed away using an EMBLA (Scatron), leaving the cells in 40 ul of assay buffer (1×HBSS, 10 mM D-Glucose, 1 mM CaCl2, 10 mM HEPES, 10×7.5% NaHCO3 and 2.5 mM Probenecid).
# FLIPR Assay—IC50 Determination Protocol
# For IC50 determinations the fluorescence is read using FLIPR filter 1 (em […]). A cellular baseline recording is taken for 30 seconds, followed by a 20 μl addition of 10, titrated half-log concentrations of the test compound, yielding cellular concentration ranging from 3 μM to 0.1 nM. Data is collected every 2 seconds for a further 5 minutes prior to the addition of a VR1 agonist solution: either 50 nM solution of capsaicin or MES (2-[N-morpholino]ethanesulfonic acid) buffer (pH 5.2), by the FLIPR pipettor. The FLIPR continues to collect data for a further 4 minutes. […] This consequently leading to a reduction in fluorescence signal and providing a reduced fluorescence reading, compared with no compound, buffer controls. Data is exported by the FLIPR program as a sum of fluorescence calculated under the curve upon the addition of capsaicin. […]
# FLIPR (Fluorometric Image Plate Reader) screening assay with HEK T-REX hVR1. […]
# For IC50 determinations the fluorescence is read using FLIPR filter 1 (em […]). […] This consequently leading to a reduction in fluorescence signal and providing a reduced fluorescence reading, compared with no compound, buffer controls. Data is exported by the FLIPR program as a sum of fluorescence calculated under the curie upon the addition of capsaicin. […]
# T1 sequence (Q8NER1 whole entry): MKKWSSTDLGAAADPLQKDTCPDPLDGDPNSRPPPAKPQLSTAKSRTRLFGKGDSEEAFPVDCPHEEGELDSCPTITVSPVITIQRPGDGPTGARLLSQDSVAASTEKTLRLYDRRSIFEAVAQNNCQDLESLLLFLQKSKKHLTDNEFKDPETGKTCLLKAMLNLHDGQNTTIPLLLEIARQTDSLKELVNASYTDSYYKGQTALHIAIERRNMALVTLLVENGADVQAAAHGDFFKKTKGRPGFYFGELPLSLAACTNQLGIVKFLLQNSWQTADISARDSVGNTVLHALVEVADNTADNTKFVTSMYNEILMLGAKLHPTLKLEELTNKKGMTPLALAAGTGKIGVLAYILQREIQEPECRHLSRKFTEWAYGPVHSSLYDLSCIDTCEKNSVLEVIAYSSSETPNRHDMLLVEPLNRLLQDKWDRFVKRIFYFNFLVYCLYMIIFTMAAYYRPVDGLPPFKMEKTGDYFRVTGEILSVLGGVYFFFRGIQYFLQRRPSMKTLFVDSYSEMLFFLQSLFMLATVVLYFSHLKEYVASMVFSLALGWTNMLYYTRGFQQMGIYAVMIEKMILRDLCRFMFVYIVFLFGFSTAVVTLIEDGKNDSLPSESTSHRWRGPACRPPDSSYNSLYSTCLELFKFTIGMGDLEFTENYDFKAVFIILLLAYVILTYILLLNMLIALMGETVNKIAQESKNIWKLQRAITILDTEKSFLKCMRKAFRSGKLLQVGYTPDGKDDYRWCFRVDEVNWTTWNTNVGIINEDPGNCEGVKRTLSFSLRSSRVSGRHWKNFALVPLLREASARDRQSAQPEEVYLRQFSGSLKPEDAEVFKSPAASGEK
row,IC50 [nM],SMILES
1,1660,"Cc1nc2cc(C(=O)NCc3cccc(C(F)(F)F)c3)ccc2s1 [Example 8, 2-methyl-N-[3-trifluoromethylbenzyl]-1,3-benzothiazole-5-carboxamide]"
2,226,"Cc1nc2cc(C(=O)Nc3ccc(C(C)(C)C)cc3)ccc2s1 [Example 1, N-4-tert-butylphenyl-2-methyl-1,3-benzothiazole-5-carboxamide]"
3,2780,"Cc1nc2cc(C(=O)NCc3ccc(C(F)(F)F)cc3)ccc2s1 [Example 7, 2-methyl-N-[4-trifluoromethylbenzyl]-1,3-benzothiazole-5 carboxamide]"

# Source: US20080108676A1, “Benzothiazolecarboxamides” (New Benzothiazolecarboxamides, priority 2004, published 2008)
